Columns and labels:
[1] = target: PRMT5 (Homo sapiens, UniProt O14744); settings: substrate E2-F-1; cited from earlier work
[2] = tested on: PRMT5; settings: shRNAs disclosed in U.S. Patent Application No. 62/049,004; cited from earlier work
[3] = target: T1, PRMT5/MEP50 enzyme complex (Homo sapiens, UniProt O14744); assay: in vitro biochemical assay: PRMT5/MEP50 enzyme complex with SAM and purified AR LBD (with or without ERG ETS domain); settings: AR LBD/PRMT5 and AR LBD/PRMT5/ETS reactions
T1 construct: purchased
T1 sequence (O14744 whole entry, the tested form may be a part): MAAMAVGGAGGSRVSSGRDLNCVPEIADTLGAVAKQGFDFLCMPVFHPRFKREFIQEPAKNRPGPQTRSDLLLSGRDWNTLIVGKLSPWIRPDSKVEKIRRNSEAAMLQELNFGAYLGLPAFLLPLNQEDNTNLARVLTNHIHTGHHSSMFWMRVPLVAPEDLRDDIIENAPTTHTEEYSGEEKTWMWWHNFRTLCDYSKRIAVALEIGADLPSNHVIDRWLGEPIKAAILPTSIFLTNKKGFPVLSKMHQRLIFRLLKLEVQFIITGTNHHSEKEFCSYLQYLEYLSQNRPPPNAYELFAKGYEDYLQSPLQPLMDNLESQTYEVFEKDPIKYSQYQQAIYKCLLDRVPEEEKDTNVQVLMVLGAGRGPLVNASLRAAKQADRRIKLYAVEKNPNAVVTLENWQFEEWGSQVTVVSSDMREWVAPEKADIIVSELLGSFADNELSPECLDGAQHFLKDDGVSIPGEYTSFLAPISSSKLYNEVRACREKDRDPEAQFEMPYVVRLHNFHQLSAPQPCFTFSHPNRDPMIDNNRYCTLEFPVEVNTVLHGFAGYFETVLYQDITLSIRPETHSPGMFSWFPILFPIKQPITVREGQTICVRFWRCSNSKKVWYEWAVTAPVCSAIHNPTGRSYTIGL
T1 sequence (Q9BQA1 whole entry partner, the tested form may be a part): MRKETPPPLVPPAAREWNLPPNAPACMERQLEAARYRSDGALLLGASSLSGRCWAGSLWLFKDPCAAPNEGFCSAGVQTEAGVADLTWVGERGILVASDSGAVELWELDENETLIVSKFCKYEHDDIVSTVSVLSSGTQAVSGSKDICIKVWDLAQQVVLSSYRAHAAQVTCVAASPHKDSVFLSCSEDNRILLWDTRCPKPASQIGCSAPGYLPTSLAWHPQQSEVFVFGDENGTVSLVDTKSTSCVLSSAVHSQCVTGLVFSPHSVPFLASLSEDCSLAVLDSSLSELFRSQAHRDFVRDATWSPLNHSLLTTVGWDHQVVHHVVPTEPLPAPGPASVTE
Procedure: To test whether ERG is a substrate of PRMT5, we used 22Rv1 cells to express and immunoprecipitate ERG in the presence and absence of PRMT5. Using a recently generated antibody specific for symmetric dimethyl arginine modification, we verified ERG arginine methylation levels and only observed a faint band which was not altered following PRMT5 knockdown (data not shown). To confirm these findings, we performed in vitro biochemical assays in which we incubated increasing amounts of commercial PRMT5/MEP50 enzyme complex with the methyl donor S-Adenosyl-Methionine (SAM) and either the pointed (PNT) domain or ETS domain of ERG as possible substrates of PRMT5. As a measure of PRMT5 catalytic activity and usage of the methyl donor SAM for substrate methylation, we evaluated and quantified by mass spectrometry the amount of S-Adenosyl-Homocysteine (SAH) produced (data not shown). […] To investigate whether the ligand binding domain (LBD) of AR is a direct substrate of PRMT5, we performed a series of in vitro biochemical assays in which we incubated the PRMT5/MEP50 enzyme complex with the methyl donor S-Adenosyl-Methionine (SAM) and purified AR LBD. […]

Chain of PRMT5 (Homo sapiens, UniProt O14744) (O14744 whole entry): as the sequence (O14744 whole entry, the tested form may be a part) above
Chain of PRMT5 (Homo sapiens, UniProt O14744) (Q9BQA1 whole entry partner): as the sequence (Q9BQA1 whole entry partner, the tested form may be a part) above

Molecule	effectiveness of shRNA to PRMT5 [2]	other results
Nc1ncnc2c1ncn2[C@@H]1O[C@H](C[C@@H](N)CC[C@H](N)C(=O)O)C(O)C1O (stereo in doubt) [Sinefungin, 5′-Deoxy-5′-(1,4-diamino-4-carboxybutyl)adenosine]	–	inhibition of PRMT5 activity [1]: inhibits PRMT5 activity
sh4737: PRMT5 shRNA, target sequence GCCAAGTGACCGTAGTCTCAT (SEQ ID NO: 15)	most effective	–
O=C(Nc1ccc2c(O)cc(S(=O)(=O)O)cc2c1)Nc1ccc2c(O)cc(S(=O)(=O)O)cc2c1 [AMI-1]	–	AR mono-methylation levels ([3]; arginine mono-methyl antibody): completely blocked; SAH production ([3]; measured by mass spectrometry): completely blocked
sh4736: PRMT5 shRNA, target sequence GCGGATAAAGCTGTATGCTGT (SEQ ID NO: 11) (the letters are possibly those of the target site)	most effective	–
sh4738: PRMT5 shRNA, target sequence GCCATCCCAACAGAGATCCTA (SEQ ID NO: 8) (the letters are possibly those of the target site)	also effective	–

Reference: patent publication US10479997B2, “Compositions and methods for diagnosis and treatment of prostate cancer” (NOVARTIS AG, priority 2014, dated 2019)
